Measurements as given in patent publication US20260216141A1, “NECROSIS INHIBITOR” (LINKGEVITY LIMITED, priority 2023, published 2026).
Entries after “also recorded” stand apart in the source; their conditions may differ.

Tests used:
Hepg2s spheroids = type: cell-based
Procedure: Media changes were on alternative days. […] DMSO controls were added on each plate.
In some of the following Examples, human 3D cell culture was employed using liver Hepg2 cells. 3D cell culture is known to accurately replicate a cell's native environment. During embryonic development, cells aggregate and self-assemble into complex multi-cellular structures. The same aggregation process can likewise occur in in vitro culture systems if cell-cell cohesion is favoured over cell attachment to a substrate. The resulting 3D cell culture aggregates are known as spheroids. […] A standard method of spheroid formation in U-bottom low adhesion plates was used in the Examples herein.
This is because, as the spheroids grow, only the peripheral cells obtain oxygen and nutrients from the cell culture medium. The inner cells die from cell death necrosis, with the formation of large necrotic cores (observable though use of standard live dead stains). Thus, necrotic core formation represents a naturally occurring hypoxic and nutrient stress. This resembles multiple forms of shock in humans where blood flow carrying nutrients and oxygen is disrupted to certain cells, tissues and/or organs.

[1] = system: mouse organs (heart, brain, spleen organotypic slices); assay: Mouse organotypic slices hypoxia stress, PI/DAPI staining; type: cell-based; settings: 2500 μM EGTA during stress, hypoxia 2.5 hrs in N2 gas bubbled buffer
Excerpt: For organotypic cultures, sagittal hippocampal brainslices were taken from wild type mice. Following decapitation, all organs were quickly removed, placed in ice-cold buffer (artificial cerebrospinal fluid (ACSF) [in mmol/L]: NaCl 125, KCl 2.4, NaHCO326, NaH2PO4 1.25, glucose 25, CaCl2 2 [0.5 mmol/L for dissection], MgCl2 1 [5 mmol/L for dissection]; bubbled with carbogen) for brain, and for all other organs Ringers buffer. For brain, to reduce the rate of cell death most dissections were carried out with high-magnesium (5 mmol/L)/low-calcium (0.5 mmol/L) ACSF. The brain was hemisected and a section was cut away by hand that was approximately 100° from the midline surface. The hemispheres were then mounted with superglue on to a slicing stage and 300 μm hippocampal slices were cut with a vibroslicer and transferred to an incubating chamber with circulating ACSF (bubbled with carbogen). All other organs were treated similarly but Ringer's buffer was used instead of ACSF. For the heart and spleen, cross sectional slices going fully across the organ were taken. The slices were incubated at 35° C. for approximately 1 hrs before the incubator was switched off and the bath was allowed to cool to room temperature. […]

[2] = system: HEK293 suspension culture; assay: HEK293 suspension culture oxidative stress, PI/DAPI staining; type: cell-based, human; settings: 2500 μM EGTA 2 hrs prior and during stress, 20 sec 1M H2O2
Procedure: HEK293 cells were detached using trypsin, washed and placed in cell culture medium. Cells were pre-treated for 2 hrs before and during stress with or without (control) EGTA 2500 μM. Cells were stressed by placing them in a 1M hydrogen peroxide solution (in cell culture medium) for 20 sec. Cells were then washed in cell culture medium and stained with PI as well as DAPI to visualise all cell nuclei (including intact cell nuclei), and placed on a microscope slide under a coverslip and imaged.
For HEK293 suspension culture, cells were treated with a high dosage of EGTA 2 hrs prior to stress as well as during the stress. Stress was exposure to 1M hydrogen peroxide alongside untreated controls. Cells were then stained with DAPI and PI and Normarski and epifluoresence imaging was performed.

[3] = system: Zebra fish (Danio rerio) liver; assay: Zebra fish liver oxidative stress, PI/DAPI staining; type: cell-based; settings: 2500 μM EGTA during stress, 7 min in 1 mM H2O2
Procedure: Freshly culled zebrafish (Danio rerio) was dissected to quickly remove the liver which was then placed in PBS buffer and immediately stressed with 1 mM hydrogen peroxide for 7 min in with or without 2500 μM EGTA. The liver was then washed in PBS to stop the stress and stained with PI as well as DAPI to visualise all cell nuclei (including intact cell nuclei). The liver was then placed on a microscope slide under a coverslip and imaged.
Moving to more complex animals, the intact liver from freshly culled and dissected zebrafish (Danio rerio) was placed in PBS buffer and immediately stressed with the toxin hydrogen peroxide with or without EGTA. The liver was then washed in PBS and stained with PI as well as DAPI to visualise all cell nuclei (including intact cell nuclei). The liver was then placed on a microscope slide under a coverslip and imaged, and the percentage of PI-stained cells scored (relative to all cells seen in the image, i.e., DAPI stained).

O=C(O)CN(CCOCCOCCN(CC(=O)O)CC(=O)O)CC(=O)O [EGTA, ethylene glycol-bis(β-aminoethyl ether)-N,N,N′,N′-tetraacetic acid]
dosage needed to suppress necrosis (Hepg2s spheroids; Hepg2s spheroids, day 7): 2500 µM | toxicity at earlier time points (Hepg2s spheroids; time points earlier than day 7): some mild, but not statistically significant, toxicity | % of necrotic cells (PI stain) relative to all cells (DAPI stain) [1]: necrosis cell death is prevented; also recorded: marked improvement in all 3 tissue types | % of necrotic cells (PI stain) relative to all cells (DAPI stain) [2]: necrosis cell death is prevented; also recorded: significantly reduced | % of necrotic cells (PI stain) relative to all cells (DAPI stain) [3]: necrosis cell death is prevented; also recorded: reduction in the percentage of necrotic (PI stained) cells
